Among the data in PubChem BioAssay AID330 (DTP/NCI, 2004) are T/C values, retold here.

Values joined by “and” are separate entries in the source; they are usually repeats but may differ in a detail not shown here. Equal values may be shown once. Inconclusive results and toxic doses are left out. Peptide text beside a SMILES is read from it. * marks the point of attachment. Trt = c1ccc(C(c2ccccc2)(c2ccccc2)*)cc1; Cbz = O=C(OCc1ccccc1)*

The subject of the test is P388 leukemia ip, CD2F1 mice, survival T/C. The experiment in a line: NCI In Vivo Anticancer Drug Screen. Data for tumor model P388 Leukemia (intraperitoneal) in CD2F1 (CDF1) mice. The note with it: endpoint: median survival time, higher = longer survival. A digest of the protocol: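 Mice carrying the transplanted tumor received test compound or vehicle. Survival was recorded in each group, and the value is the treated-group measurement divided by that of the vehicle-treated control group.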

The mark [1] stands for this setting: dose: 100.0 mg/kg/injection, schedule: Q01DX009 (ip), vehicle: saline with Tween-80.
Setting [2] is: dose: 200.0 mg/kg/injection, schedule: Q01DX009 (ip), vehicle: saline with Tween-80.
Where [3] appears, read: dose: 50.0 mg/kg/injection, schedule: Q01DX009 (ip), vehicle: saline with Tween-80.
Where [4] appears, read: dose: 50.0 mg/kg/injection, schedule: Q01DX005 (ip), vehicle: saline with Tween-80.
Setting [5] is: dose: 100.0 mg/kg/injection, schedule: Q01DX005 (ip), vehicle: saline with Tween-80.
[6] abbreviates: dose: 200.0 mg/kg/injection, schedule: Q01DX005 (ip), vehicle: saline with Tween-80.
The mark [7] stands for this setting: dose: 50.0 mg/kg/injection, schedule: Q01DX005 (ip), vehicle: Klucel (hydroxypropylcellulose) (HPC).
Where [8] appears, read: dose: 100.0 mg/kg/injection, schedule: Q01DX005 (ip), vehicle: Klucel (hydroxypropylcellulose) (HPC).
The mark [9] stands for this setting: dose: 200.0 mg/kg/injection, schedule: Q01DX005 (ip), vehicle: Klucel (hydroxypropylcellulose) (HPC).

`CCCCCCCCC(=O)OCCN(CCOC(=O)CCCCCCCC)C(=O)COC(=O)CCCCCCCC`: the T/C reads like this: (dose: 50.0 mg/kg/injection, schedule: Q01DX009 (ip), vehicle: Klucel (hydroxypropylcellulose) (HPC)) 102 % of control; (dose: 100.0 mg/kg/injection, schedule: Q01DX009 (ip), vehicle: Klucel (hydroxypropylcellulose) (HPC)) 113 % of control; (dose: 200.0 mg/kg/injection, schedule: Q01DX009 (ip), vehicle: Klucel (hydroxypropylcellulose) (HPC)) 93 % of control.
For the compound `CN1C(C(=O)Nc2nccs2)=C(O)c2ccccc2S1(=O)=O`, the T/C (dose: 60.0 mg/kg/injection, schedule: Q01DX005 (ip), vehicle: saline with Tween-80) is 105 % of control and the T/C (dose: 120.0 mg/kg/injection, schedule: Q01DX005 (ip), vehicle: saline with Tween-80) is 98 % of control.
On to `O=C1Nc2ccccc2/C1=N/N1C(=O)CSC1=S`, for which the T/C was 97 % of control (dose: 0.93 mg/kg/injection, schedule: Q01DX005 (ip), vehicle: Klucel (hydroxypropylcellulose) (HPC)); 94 % of control (dose: 1.87 mg/kg/injection, schedule: Q01DX005 (ip), vehicle: Klucel (hydroxypropylcellulose) (HPC)); 88 % of control (dose: 3.75 mg/kg/injection, schedule: Q01DX005 (ip), vehicle: Klucel (hydroxypropylcellulose) (HPC)).
`Cn1nnnc1NC#N`: the T/C runs as follows: (dose: 100.0 mg/kg/injection, schedule: Q01DX001 (ip), vehicle: Klucel (hydroxypropylcellulose) (HPC)) 107 % of control; (dose: 200.0 mg/kg/injection, schedule: Q01DX001 (ip), vehicle: Klucel (hydroxypropylcellulose) (HPC)) 113 % of control; (dose: 400.0 mg/kg/injection, schedule: Q01DX001 (ip), vehicle: Klucel (hydroxypropylcellulose) (HPC)) 108 % of control.
Turning to `Nc1ccc(S(=O)(=O)c2ccc(NCNc3ccc(S(=O)(=O)c4ccc(N)cc4)cc3)cc2)cc1`, the T/C by setting is: under setting [1], 94 % of control; under setting [2], 91 % of control; (dose: 400.0 mg/kg/injection, schedule: Q01DX009 (ip), vehicle: saline with Tween-80) 94 % of control.
As to `COc1ccc(C2CC(=O)N(CCCl)C(=O)C2)cc1`, the T/C runs as follows: (dose: 100.0 mg/kg/injection, schedule: Q01DX001 (ip), vehicle: suspension in saline) 102 % of control; (dose: 200.0 mg/kg/injection, schedule: Q01DX001 (ip), vehicle: suspension in saline) 103 % of control; (dose: 400.0 mg/kg/injection, schedule: Q01DX001 (ip), vehicle: suspension in saline) 100 % of control.
`COC(=O)C(CSC(c1ccccc1)(c1ccccc1)c1ccccc1)NC(=O)C(CC(N)=O)NC(=O)OCc1ccccc1` (stereo not drawn) (Cbz-Asn-Cys(Trt)-OMe; configuration not given here): the T/C is, setting by setting: (dose: 12.5 mg/kg/injection, schedule: Q01DX009 (ip), vehicle: distilled water + Tween-80) 92 % of control; (dose: 25.0 mg/kg/injection, schedule: Q01DX009 (ip), vehicle: distilled water + Tween-80) 97 % of control; (dose: 50.0 mg/kg/injection, schedule: Q01DX009 (ip), vehicle: distilled water + Tween-80) 122 % of control and 94 % of control; (dose: 200.0 mg/kg/injection, schedule: Q01DX009 (ip), vehicle: distilled water + Tween-80) 163 % of control.
For the compound `COc1ccc(/C=N/NC(=O)CNC(=O)c2ccc(Cl)c(Cl)c2)cc1`, the T/C reads like this: (dose: 3.13 mg/kg/injection, schedule: Q01DX009 (ip), vehicle: saline with Tween-80) 100 % of control; (dose: 6.25 mg/kg/injection, schedule: Q01DX009 (ip), vehicle: saline with Tween-80) 108 % of control; (dose: 12.5 mg/kg/injection, schedule: Q01DX009 (ip), vehicle: saline with Tween-80) 107 % of control.
Consider `CC(=O)c1c(O)c(C)c(O)c2c1OC1=Cc3c(c(C)nn3-c3ccccc3)C(=O)C12C` (stereo not given), for which the T/C is, setting by setting: (dose: 6.25 mg/kg/injection, schedule: Q01DX009 (ip), vehicle: gum acacia) 104 % of control and 108 % of control; (dose: 12.5 mg/kg/injection, schedule: Q01DX009 (ip), vehicle: gum acacia) 103 % of control and 105 % of control; (dose: 25.0 mg/kg/injection, schedule: Q01DX009 (ip), vehicle: gum acacia) 101 % of control and 105 % of control; (dose: 50.0 mg/kg/injection, schedule: Q01DX009 (ip), vehicle: gum acacia) 98 % of control and 101 % of control; (dose: 100.0 mg/kg/injection, schedule: Q01DX009 (ip), vehicle: gum acacia) 99 % of control and 93 % of control; (dose: 200.0 mg/kg/injection, schedule: Q01DX009 (ip), vehicle: gum acacia) 86 % of control and 90 % of control.
As to `CC(=O)NCC(=O)c1ccc(Cl)cc1`, the T/C is, setting by setting: (dose: 100.0 mg/kg/injection, schedule: Q04DX003 (ip), vehicle: saline with Tween-80) 120 % of control; (dose: 200.0 mg/kg/injection, schedule: Q04DX003 (ip), vehicle: saline with Tween-80) 120 % of control; (dose: 400.0 mg/kg/injection, schedule: Q04DX003 (ip), vehicle: saline with Tween-80) 105 % of control.
For `Cn1c(=O)c2c(nc(/N=C/c3cccc([N+](=O)[O-])c3)n2C)n(C)c1=O`, the T/C (dose: 100.0 mg/kg/injection, schedule: Q04DX003 (ip), vehicle: saline) is 100 % of control; the T/C (dose: 200.0 mg/kg/injection, schedule: Q04DX003 (ip), vehicle: saline) was 94 % of control; the T/C (dose: 400.0 mg/kg/injection, schedule: Q04DX003 (ip), vehicle: saline) is 86 % of control.
As for `COc1ccc(-c2sc(C)nc2O)cc1`, the T/C under setting [3] was 101 % of control, the T/C under setting [1] was 94 % of control and the T/C under setting [2] is 98 % of control.
Turning to `O=C1NC(O)c2cccc(Cl)c2O1` (stereo not given), the T/C under setting [4] is 102 % of control, the T/C under setting [5] was 102 % of control and the T/C under setting [6] was 107 % of control.
Turning to `CC(C)N=C1NS(=O)(=O)c2ccccc21`, the T/C is, setting by setting: under setting [4], 114 % of control; under setting [5], 97 % of control; under setting [6], 108 % of control.
Take `N#CCC(=O)N/N=C(/CC1(O)C(=O)Nc2c(Cl)ccc(Cl)c21)c1ccco1` (stereo not given): the T/C was 97 % of control (dose: 100.0 mg/kg/injection, schedule: Q04DX002 (ip), vehicle: saline with Tween-80); 89 % of control (dose: 200.0 mg/kg/injection, schedule: Q04DX002 (ip), vehicle: saline with Tween-80); 89 % of control (dose: 400.0 mg/kg/injection, schedule: Q04DX002 (ip), vehicle: saline with Tween-80).
Take `OCC1OC(SC2OC(CO)C(O)C(O)C2O)C(O)C(O)C1O` (stereo not given): the T/C by setting is: (dose: 100.0 mg/kg/injection, schedule: Q01DX001 (ip), vehicle: water) 114 % of control; (dose: 200.0 mg/kg/injection, schedule: Q01DX001 (ip), vehicle: water) 94 % of control; (dose: 400.0 mg/kg/injection, schedule: Q01DX001 (ip), vehicle: water) 100 % of control.
In the case of `COc1ccc(N(N=O)c2c(C)cc(C)cc2C)c(C(=O)O)c1`, the T/C is, setting by setting: under setting [7], 96 % of control; under setting [8], 96 % of control; under setting [9], 98 % of control.
On to `CC(=O)N(c1ccccc1)c1ccccc1[N+](=O)[O-]`, for which the T/C is 87 % of control (dose: 50.0 mg/kg/injection, schedule: Q01DX009 (ip), vehicle: saline); 86 % of control (dose: 100.0 mg/kg/injection, schedule: Q01DX009 (ip), vehicle: saline); 86 % of control (dose: 200.0 mg/kg/injection, schedule: Q01DX009 (ip), vehicle: saline).
For `CC12CCC3c4ccc(O)cc4CCC3C1C/C(=C\C(=O)O)C2O` (stereo not given), the T/C is, setting by setting: (dose: 25.0 mg/kg/injection, schedule: Q04DX003 (ip), vehicle: Klucel (hydroxypropylcellulose) (HPC)) 116 % of control; (dose: 50.0 mg/kg/injection, schedule: Q04DX003 (ip), vehicle: Klucel (hydroxypropylcellulose) (HPC)) 100 % of control and 104 % of control and 110 % of control; (dose: 100.0 mg/kg/injection, schedule: Q04DX003 (ip), vehicle: Klucel (hydroxypropylcellulose) (HPC)) 100 % of control (2×) and 111 % of control; (dose: 200.0 mg/kg/injection, schedule: Q04DX003 (ip), vehicle: Klucel (hydroxypropylcellulose) (HPC)) 99 % of control and 100 % of control and 121 % of control.
As for `CC(=O)Nc1ccc(S(=O)(=O)n2c(=O)oc3ccc(Br)cc32)cc1`, the T/C reads like this: under setting [7], 98 % of control; under setting [8], 100 % of control; under setting [9], 99 % of control.
In the same order, the values of `O=c1c2ccccc2ccn1O` are 97 % of control, 89 % of control and 89 % of control.
Consider `O=C1Cc2ccccc2N1C1c2ccccc2C=Cc2ccccc21`, for which the T/C under setting [3] was 95 % of control, the T/C under setting [1] is 86 % of control and the T/C under setting [2] is 89 % of control.
